Assay results reported in ChEMBL document CHEMBL5715954, “Silencing c-Myc translation as a therapeutic strategy through targeting PI3Kδ and CK1ε in hematological malignancies” (Blood, 2017).

Key:
Design in all cases: scale not given: the % may be the effect or the level left
[1] = biological target: T1, Mitogen-activated protein kinase 15 (Homo sapiens) (UniProt Q8TD08); experiment: Inhibition of human ERK7 assessed as enzyme activity at 1 uM using myelin basic protein as substrate preincubated for 20 mins followed by [gamma-33P]-ATP addition and measured after 120 mins by radiometric Hot-SpotSM Kinase assay relative to control
T1 sequence (whole entry): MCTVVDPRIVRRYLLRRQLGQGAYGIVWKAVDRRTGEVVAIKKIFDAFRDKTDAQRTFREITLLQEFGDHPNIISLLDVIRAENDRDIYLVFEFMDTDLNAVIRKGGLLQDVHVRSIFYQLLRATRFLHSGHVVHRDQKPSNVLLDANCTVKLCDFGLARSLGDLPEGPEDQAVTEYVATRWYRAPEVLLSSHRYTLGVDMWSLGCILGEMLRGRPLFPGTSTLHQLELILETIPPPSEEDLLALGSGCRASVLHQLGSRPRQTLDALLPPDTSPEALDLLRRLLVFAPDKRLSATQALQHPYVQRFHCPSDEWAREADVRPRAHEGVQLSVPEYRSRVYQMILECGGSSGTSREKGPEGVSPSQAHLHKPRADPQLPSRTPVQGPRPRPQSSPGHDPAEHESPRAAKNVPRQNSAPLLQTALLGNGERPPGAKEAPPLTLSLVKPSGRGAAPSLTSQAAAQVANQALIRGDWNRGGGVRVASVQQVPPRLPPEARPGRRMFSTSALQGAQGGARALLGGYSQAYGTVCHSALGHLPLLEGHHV

[2] = biological target: Homeodomain-interacting protein kinase 3 (Homo sapiens) (UniProt Q9H422); experiment: Inhibition of human HIPK3 assessed as enzyme activity at 1 uM using myelin basic protein as substrate preincubated for 20 mins followed by [gamma-33P]-ATP addition and measured after 120 mins by radiometric Hot-SpotSM Kinase assay relative to control
[3] = biological target: Tyrosine-protein kinase JAK2 (Homo sapiens) (UniProt O60674); experiment: Inhibition of human JAK2 assessed as enzyme activity at 1 uM using poly[Glu:Tyr] (4:1) as substrate preincubated for 20 mins followed by [gamma-33P]-ATP addition and measured after 120 mins by radiometric Hot-SpotSM Kinase assay relative to control
[4] = biological target: MAP kinase-interacting serine/threonine-protein kinase 2 (Homo sapiens) (UniProt Q9HBH9); experiment: Inhibition of human MNK2 assessed as enzyme activity at 1 uM using myelin basic protein as substrate preincubated for 20 mins followed by [gamma-33P]-ATP addition and measured after 120 mins by radiometric Hot-SpotSM Kinase assay relative to control
[5] = biological target: T2, Serine/threonine-protein kinase Nek11 (Homo sapiens) (UniProt Q8NG66); experiment: Inhibition of human NEK11 assessed as enzyme activity at 1 uM using myelin basic protein as substrate preincubated for 20 mins followed by [gamma-33P]-ATP addition and measured after 120 mins by radiometric Hot-SpotSM Kinase assay relative to control
T2 sequence (whole entry): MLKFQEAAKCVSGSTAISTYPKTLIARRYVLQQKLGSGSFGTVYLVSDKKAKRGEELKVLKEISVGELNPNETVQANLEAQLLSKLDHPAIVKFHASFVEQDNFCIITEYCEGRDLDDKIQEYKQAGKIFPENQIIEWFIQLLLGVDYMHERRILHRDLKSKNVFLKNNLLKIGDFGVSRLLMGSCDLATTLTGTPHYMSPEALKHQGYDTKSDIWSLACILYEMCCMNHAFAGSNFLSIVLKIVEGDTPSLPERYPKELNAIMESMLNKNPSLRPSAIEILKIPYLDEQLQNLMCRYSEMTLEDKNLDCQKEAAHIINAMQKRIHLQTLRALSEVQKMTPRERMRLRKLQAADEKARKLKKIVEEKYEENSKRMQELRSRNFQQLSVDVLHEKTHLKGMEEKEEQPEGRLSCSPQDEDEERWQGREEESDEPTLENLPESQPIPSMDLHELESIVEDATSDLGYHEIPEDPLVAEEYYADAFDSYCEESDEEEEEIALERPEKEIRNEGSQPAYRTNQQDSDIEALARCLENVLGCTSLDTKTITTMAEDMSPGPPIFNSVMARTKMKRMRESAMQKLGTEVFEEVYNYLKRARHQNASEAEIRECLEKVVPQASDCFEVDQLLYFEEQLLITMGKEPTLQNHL

[6] = biological target: Protein kinase C alpha type (Homo sapiens) (UniProt P17252); experiment: Inhibition of human PKCa assessed as enzyme activity at 1 uM using ERMRPRKRQGSVRRRV as substrate preincubated for 20 mins followed by [gamma-33P]-ATP addition and measured after 120 mins by radiometric Hot-SpotSM Kinase assay relative to control
[7] = biological target: Protein kinase C gamma type (Homo sapiens) (UniProt P05129); experiment: Inhibition of human PKCg assessed as enzyme activity at 1 uM using ERMRPRKRQGSVRRRV as substrate preincubated for 20 mins followed by [gamma-33P]-ATP addition and measured after 120 mins by radiometric Hot-SpotSM Kinase assay relative to control
[8] = biological target: Serine/threonine-protein kinase N2 (Homo sapiens) (UniProt Q16513); experiment: Inhibition of human PKN2 assessed as enzyme activity at 1 uM using KKLNRTLSVA as substrate preincubated for 20 mins followed by [gamma-33P]-ATP addition and measured after 120 mins by radiometric Hot-SpotSM Kinase assay relative to control
[9] = biological target: T3, Serine/threonine-protein kinase Sgk2 (Homo sapiens) (UniProt Q9HBY8); experiment: Inhibition of human SGK2 assessed as enzyme activity at 1 uM using KGSGSGRPRTSSFAEG as substrate preincubated for 20 mins followed by [gamma-33P]-ATP addition and measured after 120 mins by radiometric Hot-SpotSM Kinase assay relative to control
T3 sequence (whole entry): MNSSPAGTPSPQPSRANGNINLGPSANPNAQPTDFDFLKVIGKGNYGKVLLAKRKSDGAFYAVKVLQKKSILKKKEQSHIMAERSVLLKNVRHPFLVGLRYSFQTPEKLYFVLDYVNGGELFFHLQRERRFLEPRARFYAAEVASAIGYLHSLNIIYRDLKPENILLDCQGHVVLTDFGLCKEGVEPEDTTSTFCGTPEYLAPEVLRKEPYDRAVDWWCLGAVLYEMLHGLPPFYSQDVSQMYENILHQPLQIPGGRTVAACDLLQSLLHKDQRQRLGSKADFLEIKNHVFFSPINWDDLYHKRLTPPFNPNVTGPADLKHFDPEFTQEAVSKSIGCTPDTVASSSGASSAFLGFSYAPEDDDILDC

Sequence of Homeodomain-interacting protein kinase 3 (Homo sapiens) (Q9H422 whole entry, looked up): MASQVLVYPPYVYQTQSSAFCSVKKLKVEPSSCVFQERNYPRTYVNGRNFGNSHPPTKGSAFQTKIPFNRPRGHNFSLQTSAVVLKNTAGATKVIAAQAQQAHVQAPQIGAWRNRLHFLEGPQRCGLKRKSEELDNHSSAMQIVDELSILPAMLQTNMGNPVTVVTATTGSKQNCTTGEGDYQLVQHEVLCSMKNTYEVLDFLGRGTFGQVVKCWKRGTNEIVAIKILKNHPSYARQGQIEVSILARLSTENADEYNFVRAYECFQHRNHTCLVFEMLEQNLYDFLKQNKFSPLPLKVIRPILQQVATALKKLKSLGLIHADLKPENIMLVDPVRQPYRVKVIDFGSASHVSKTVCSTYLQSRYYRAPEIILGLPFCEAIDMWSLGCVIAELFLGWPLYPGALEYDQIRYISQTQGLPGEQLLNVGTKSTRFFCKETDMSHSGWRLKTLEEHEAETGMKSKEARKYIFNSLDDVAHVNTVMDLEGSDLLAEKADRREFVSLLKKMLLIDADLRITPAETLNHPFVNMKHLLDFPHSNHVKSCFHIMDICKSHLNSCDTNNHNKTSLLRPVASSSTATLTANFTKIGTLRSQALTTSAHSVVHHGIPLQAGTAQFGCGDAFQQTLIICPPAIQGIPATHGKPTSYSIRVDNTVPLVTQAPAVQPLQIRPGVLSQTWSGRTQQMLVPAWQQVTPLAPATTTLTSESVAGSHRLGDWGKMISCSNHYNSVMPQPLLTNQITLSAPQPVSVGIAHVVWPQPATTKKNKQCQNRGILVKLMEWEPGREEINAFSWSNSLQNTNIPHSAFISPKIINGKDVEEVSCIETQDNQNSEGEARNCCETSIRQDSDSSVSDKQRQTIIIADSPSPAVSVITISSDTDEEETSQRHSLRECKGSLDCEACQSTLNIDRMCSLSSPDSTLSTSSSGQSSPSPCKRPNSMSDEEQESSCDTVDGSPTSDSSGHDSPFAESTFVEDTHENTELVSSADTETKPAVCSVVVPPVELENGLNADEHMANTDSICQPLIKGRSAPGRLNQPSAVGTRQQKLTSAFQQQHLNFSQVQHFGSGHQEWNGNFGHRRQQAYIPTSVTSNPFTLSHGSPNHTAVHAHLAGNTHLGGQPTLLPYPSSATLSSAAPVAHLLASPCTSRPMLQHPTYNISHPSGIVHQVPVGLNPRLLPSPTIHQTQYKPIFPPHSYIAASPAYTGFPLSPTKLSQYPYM
Sequence of Tyrosine-protein kinase JAK2 (Homo sapiens) (O60674 whole entry): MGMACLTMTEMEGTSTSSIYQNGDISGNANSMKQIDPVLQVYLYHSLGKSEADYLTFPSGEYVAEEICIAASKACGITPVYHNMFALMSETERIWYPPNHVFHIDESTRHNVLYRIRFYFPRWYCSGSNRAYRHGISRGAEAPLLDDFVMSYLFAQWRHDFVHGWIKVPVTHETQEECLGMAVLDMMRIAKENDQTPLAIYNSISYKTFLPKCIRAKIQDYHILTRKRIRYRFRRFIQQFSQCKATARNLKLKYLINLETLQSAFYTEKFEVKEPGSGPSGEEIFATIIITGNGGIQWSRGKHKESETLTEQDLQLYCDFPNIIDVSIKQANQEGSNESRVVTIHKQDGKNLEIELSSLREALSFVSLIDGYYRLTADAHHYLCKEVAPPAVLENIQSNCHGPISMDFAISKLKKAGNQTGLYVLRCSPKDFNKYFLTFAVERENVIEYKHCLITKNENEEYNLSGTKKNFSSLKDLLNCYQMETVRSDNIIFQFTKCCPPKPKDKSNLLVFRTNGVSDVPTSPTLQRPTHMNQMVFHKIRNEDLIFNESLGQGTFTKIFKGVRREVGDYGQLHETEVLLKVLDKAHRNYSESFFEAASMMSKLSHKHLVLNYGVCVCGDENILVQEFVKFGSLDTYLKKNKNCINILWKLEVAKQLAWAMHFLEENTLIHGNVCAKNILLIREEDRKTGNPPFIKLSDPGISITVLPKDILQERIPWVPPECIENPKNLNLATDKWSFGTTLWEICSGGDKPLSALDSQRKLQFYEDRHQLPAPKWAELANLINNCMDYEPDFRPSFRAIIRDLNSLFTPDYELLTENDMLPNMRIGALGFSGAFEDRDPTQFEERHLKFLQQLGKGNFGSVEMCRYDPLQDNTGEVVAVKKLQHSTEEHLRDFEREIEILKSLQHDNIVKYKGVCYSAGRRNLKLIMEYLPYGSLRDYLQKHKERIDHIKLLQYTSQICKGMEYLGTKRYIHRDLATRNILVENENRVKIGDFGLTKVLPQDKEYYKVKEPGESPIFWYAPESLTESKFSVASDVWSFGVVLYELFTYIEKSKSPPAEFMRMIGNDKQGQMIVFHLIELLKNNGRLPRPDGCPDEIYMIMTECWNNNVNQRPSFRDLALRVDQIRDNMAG
Sequence of Serine/threonine-protein kinase N2 (Homo sapiens) (Q16513 whole entry, looked up): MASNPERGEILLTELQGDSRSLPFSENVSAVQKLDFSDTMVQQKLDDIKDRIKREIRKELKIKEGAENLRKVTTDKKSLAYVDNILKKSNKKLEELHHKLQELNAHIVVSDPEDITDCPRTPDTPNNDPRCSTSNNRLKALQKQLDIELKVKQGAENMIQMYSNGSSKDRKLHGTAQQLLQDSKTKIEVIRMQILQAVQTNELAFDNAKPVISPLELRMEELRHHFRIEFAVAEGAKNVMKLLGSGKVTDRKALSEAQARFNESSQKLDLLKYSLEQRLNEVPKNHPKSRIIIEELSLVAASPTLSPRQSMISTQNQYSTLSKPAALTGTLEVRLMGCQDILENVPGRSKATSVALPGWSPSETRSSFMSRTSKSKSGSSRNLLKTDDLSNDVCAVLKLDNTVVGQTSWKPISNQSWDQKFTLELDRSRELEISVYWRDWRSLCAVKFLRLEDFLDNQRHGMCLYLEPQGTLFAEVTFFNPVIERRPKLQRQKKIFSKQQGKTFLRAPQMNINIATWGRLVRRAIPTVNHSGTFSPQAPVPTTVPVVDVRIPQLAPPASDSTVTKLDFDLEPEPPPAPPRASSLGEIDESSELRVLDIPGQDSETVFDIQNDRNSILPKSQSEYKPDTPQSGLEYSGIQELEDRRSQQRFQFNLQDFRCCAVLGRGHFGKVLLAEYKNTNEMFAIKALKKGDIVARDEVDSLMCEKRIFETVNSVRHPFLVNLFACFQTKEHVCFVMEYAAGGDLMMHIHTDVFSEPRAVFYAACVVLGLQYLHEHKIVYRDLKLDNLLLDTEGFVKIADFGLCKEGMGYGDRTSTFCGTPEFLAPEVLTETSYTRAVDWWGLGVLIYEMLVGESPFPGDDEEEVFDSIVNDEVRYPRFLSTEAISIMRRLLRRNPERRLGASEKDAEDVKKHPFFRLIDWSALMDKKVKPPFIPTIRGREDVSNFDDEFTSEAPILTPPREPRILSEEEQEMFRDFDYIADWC

CC[C@H](Nc1ncnc2[nH]cnc12)c1nc2cccc(F)c2c(=O)n1-c1ccccc1
Activity [1]: 94.3%
Activity [2]: 108%
Activity [3]: 95.7%
Activity [4]: 105%
Activity [5]: 84.5%
Activity [6]: 103%
Activity [7]: 96%
Activity [8]: 84.7%
Activity [9]: 91.9%

CC(C)Oc1ccc(-c2nn([C@@H](C)c3oc4ccc(F)cc4c(=O)c3-c3cccc(F)c3)c3ncnc(N)c23)cc1F [UMBRALISIB]
Activity [1]: 88.3%
Activity [2]: 103%
Activity [3]: 92%
Activity [4]: 102%
Activity [5]: 84.8%
Activity [6]: 114%
Activity [7]: 99.8%
Activity [8]: 84.4%
Activity [9]: 90.9%

C[C@H](Nc1ncnc2nc[nH]c12)c1cc2cccc(Cl)c2c(=O)n1-c1ccccc1
Activity [1]: 98.5%
Activity [2]: 105%
Activity [3]: 100%
Activity [4]: 99.9%
Activity [5]: 90.1%
Activity [6]: 116%
Activity [7]: 97.3%
Activity [8]: 84.5%
Activity [9]: 98.8%
